In patent US9399037B2, “Triazinone compounds for treating diseases resulting from infestation with parasitic protozoans” (Bayer Intellectual Property GmbH, priority 1999, dated 2016):
Where “and” joins values, the source holds several entries; their conditions need not be identical. Equal values may be shown once. Read-outs that look alike come from different tables or passages of the source.

How the values were obtained:
[1] = system: Neospora caninum; assay: Anti-N. caninum total IgG in the serum by ELISA, prophylactically treated infected mice; type: in vivo
Description: (§1) Female Wt C57BL/6-mice, age at the time of treatment: 7½ weeks.
(§2) Neospora caninum tachyzoites were passaged through VERO cells, and isolated by column chromatography, and aliquots with concentrations of 2×10^6 parasites/100 μl were prepared in sterile PBS.
(§3) Pure toltrazuril active compound was made up as a stock solution with 50 mg/10 ml H2O+100 μl Cremophor. 0.5 mg of pure active compound were present Der application in 0.1 ml of this solution. In a mouse of 20 g, this corresponds to a use concentration of 25 mg/kg. The substances were administered perorally by gavage on 6 successive days, which corresponds to a total uptake of […].
(§4) Toltrazuril 2.5% formulated solution (100 ml solution contain: 2.50 g toltrazuril, 30.00 g triethanolamine, 80.70 g polyethylene glycol; the components are simply mixed): 6.25 ml of the 2.5% solution were diluted in 250 ml of water and administered to the mice on 6 successive days via the drinking water.
(§5) Four hours after the start of the prophylactic treatment, each mouse was infected with 2×10^6 parasite stages/100 μl sterile PBS.
(§6) 14 days post-infection, the test mice were sacrificed using CO2. They were numbered randomly to maintain a random sequence during evaluation (blind evaluation). To obtain serum, blood was taken from the myocardium. The brain was dissected carefully, and one half was stored at −80° C. for the PCR analysis. The remainder was fixed in 4% paraformaldehyde/PBS for immunohistological studies (IFAT).
Anti-N. caninum total immunoglobulin G (IgG) was determined by ELISA following the method of Eperon et al., 1999, Parasite Immunology 21:225-236. Treated groups were compared with an uninfected and an infected control group. The positive control mouse was inoculated with a crude extract of N. caninum tachyzoites and subsequently infected with 10^6 N. caninum stages. The parasite-specific IgG values were particularly high in this mouse.

[2] = system: Neospora caninum; assay: Immunofluorescence test (IFAT) on brain sections of infected mice; type: in vivo; design: key: Score (−)=no tachyzoites; Score (+)=less than 10 tachyzoites; Score (++)=between 10 and 200 tachyzoites; Score (+++)=more than 200 parasites; settings: brain sections of individual mice; 25 mg/kg/day p.o. on 6 successive days; day 14 p.i.
Description: as §1, §2, §3, §4, §5
14 days post-infection, the test mice were sacrificed using CO2. They were numbered randomly to maintain a random sequence during evaluation (blind evaluation). […]
The entire sections were studied for the assessment. Any stages of the parasite present were counted, and the following scores were used: […]

[3] = system: Neospora caninum; assay: Testing substances on infected Neospora caninum cell cultures (VERO cell monolayer, microscopical assessment); type: cell-based; design: key: 0 = no effect; 1 = some effect; 2 = full action; T = cytotoxic; settings: 4 days after beginning of treatment, 5 days post-infection
Description: Neospora caninum is an obligatory intracellular parasite. VERO cells (African green monkey kidney cells, ATCC No.: CCL 81 Vero) were used as an aid to cause the parasite to reproduce under conditions capable of standardization and definition. Vero cells were grown in the following medium: 87% […] (ICN, 12-602-54) 10% FCS (fetal calf serum, ICN, 29-101-49) 1% 200 mM L-glutamine (ICN, 15-801-13) 1% sodium bicarbonate (ICN, 16-883-49) 1% penicillin/streptomycin (ICN, 16-700-49). Noninfected cultures were maintained and passaged in 25 cm^2 (Falcon, B 769031) and 75 cm^2 (Falcon, B 769051) tissue culture flasks. Vero cells were grown at 37° C. in a 5% CO2 atmosphere in a CO2 incubator (Heraeus) until a cell monolayer was obtained.
The following Neospora caninum isolates were used for the infection of cell cultures: NC-1 (canine isolate DUBEY (1988) and NC Swe B-1/9th passage (bovine isolate; National Veterinary Institute Uppsala, Sweden). The infection materials used were infected cell cultures from the nitrogen storage (see above) or purified tachyzoites of infected cultures (see below).
Neospora caninum was isolated from infected VERO or ED monolayers under sterile conditions. First, infected cell cultures were detached from the flask bottom using a spatula (Tec No Mara, 3010) and, using a 23-gauge cannula (Luer 23 Gx1, 0.6×25 mm) drawn into a 10 ml disposable syringe. During this procedure, host cells and tissue cysts contained therein were destroyed mechanically. The cell suspension was subsequently centrifuged for 7 minutes at 1 500 rpm (Varifuge 3.0, Heraeus), the supernatant was discarded, and the sample pellet was resuspended in precisely 2.5 ml of physiological phosphate buffer (PBS: 1 mM PO4, 12 mM NaCl, 0.87 mM KCL, pH 7.4). The next isolation step was performed using a Sephadex column (PD-10™/Sephadex G-25 M, Pharmacia Biotech, 17-0851). The column was first equilibrated with 25 ml of PBS, the sample volume was applied in 2.5 ml of PBS, and elution was then effected with 5 ml of PBS. […]

[4] = system: Neospora caninum; assay: Neospora caninum-specific PCR on brain DNA of infected mice; type: in vivo; settings: prophylactic treatment, pure active compound 25 mg/kg/day p.o.
Description: as §1, §2, §3, §4, §5
as §6, with “The remainder was fixed in 4% paraformaldehyde/PBS for immunohistological studies (IFAT).” left out

[5] = system: Neospora caninum; settings: experimentally infected mice, administered via the drinking water, cited from earlier work
[6] = system: Neospora caninum; settings: dogs; treatment with sulfadiazine and clindamycin together; cited from earlier work

SMILES | OD mean (anti Neospora IgG in the serum) ([1]; group mean, 7 mice, 25 mg/kg/day p.o. on 6 successive days, day 14 p.i.) | OD (anti Neospora IgG in the serum) ([1]; individual C57BL/6 mice, 25 mg/kg/day p.o. on 6 successive days from 4 h before infection, day 14 p.i., 25 mg/kg/day) | concentration of Neospora caninum-specific IgG antibodies compared with infected and untreated control groups ([1]; mice, pure active compound 25 mg/kg/day p.o.) | IFAT [2] | Efficacy against Neospora caninum in VERO cells (assessment of monolayer) ([3]; 10 ppm) | Efficacy against Neospora caninum in VERO cells (assessment of monolayer) ([3]; 25 ppm) | Efficacy against Neospora caninum in VERO cells (assessment of monolayer) ([3]; 50 ppm) | mice PCR-negative in the group [4] | effectiveness of treatment ([5]; later start of the treatment) | effectiveness of treatment ([5]; start prior to infection, clinical symptoms prevented without parasitological recovery) | success of treatment [6]
Cc1cc(-n2c(=O)[nH]c(=O)n(C)c2=O)ccc1Oc1ccc(SC(F)(F)F)cc1 [Toltrazuril, toltrazuril] | 0.1689 | 0.338 and 0.271 and 0.056 and 0.066 and 0.18 and 0.103 and 0.168 | reduced concentration | − | 1 | 2 | 2 | 4/7 |  |  | 
Nc1ccc(S(=O)(=O)Nc2ncccn2)cc1 [sulfadiazine] |  |  |  |  |  |  |  |  | without success | only effective when the treatment was started prophylactically | only has a chance of success when it starts very early
